Holding throughout (assay type): biochemical
One experiment deals with T1, PI3Kδ (p110δ/p85α)(h) (Homo sapiens, UniProt O00329).
T1 construct: purchased Upstate (Millipore Co, Billerica, Mass., USA) #14˜604
In words: PI3K-HTRF in vitro enzyme assay, PI3Kδ. To be noted: enzyme 0.1 μg/ml. On the procedure:
(§1) The compounds of the present invention were tested for the activity of phosphatidylinositol 3-kinase delta (PI3K) by using a PI3K enzyme-homogeneous time resolved fluorescence (PI3K-HTRF) kit, which is available under Upstate™ kit (Millipore Co, Billerica, Mass., USA). This kit system measures indirectly the amount of PIP3 produced via PI3K by detecting competitive inhibition of fluorescence complex formation.
(§2) There were used three kinds of buffer solutions, i.e., reaction buffer, stop solution, and detection solution. The reaction buffer was prepared by diluting Reaction Buffer (provided in Update™ kit) with distilled water 4 times and adding DTT to a concentration of 5 mM. The stop solution was prepared by combining STOP A and B Solutions (provided in Update™ kit) in a ratio of 3:1. The detection solution was prepared by combining Detection Solution A, B and C (provided in Update™ kit) in a ratio of 1:1:18. A substrate solution and an ATP solution were prepared by diluting the 1 mM PIP2 (phosphatidyl inositol 4,5 bi-phosphate) stock solution (provided in Update™ kit) and 10 mM ATP (Sigma-aldrich Co., St. Louis, Mo., USA) stock solution with the reaction buffer to concentrations of 20 μM and 40 μM, respectively. An enzyme solution was prepared by diluting PI3Kδ (#14˜604; Upstate™ kit) with the substrate solution to the concentration of 0.2 μg/ml (final reaction concentration: 0.1 μg/ml).
(§3) The test groups were prepared by dissolving each compound in 100% DMSO at 40× the final concentration and then diluting 10-fold with the reaction buffer. 5 μl of each diluted test group solution was transferred to a 384 well low flange white flat bottom microplate (#3572, Corning Life Sciences, Lowell, Mass., USA). We performed centrifuge (1 minute, 1000 rpm) and shaking for 2 minutes after every solution-adding step in this experiment. Next, 10 μl of the enzyme solution was added to each well. A mixed solution of the substrate solution (10 μl) plus 5 μl of the 100% DMSO diluted solution without test compound (i.e., 10% DMSO solution) was used as a negative control. And also, a mixed solution of enzyme solution (10 μl) plus 5 μl of the 100% DMSO diluted solution without test compound (i.e., 10% DMSO solution) was used as a positive control. This plate was pre-incubated for 10 minutes in a 25° C. incubator. After the pre-incubation, the phosphorylation reaction was induced by adding 5 μl of the ATP solution and the plate was incubated for 30 minutes in a 25° C. incubator. This enzyme reaction was stopped by 5 μl of the stop solution and then 5 μl of the detection solution was added thereto. To obtain enough fluorescence responses, the plate was incubated for 2 hours in a 25° C. incubator protected from light.
(§4) The time-resolved fluorescence resonance energy transfer (TR-FRET) rate was measured (emission wavelength: 665 nm, 620 nm, excitation wavelength: 313 nm) by using a Flexstation3 Micro plate reader (Molecular Devices, USA). TR-FRET Rate was calculated based on the Equation 1 and using these TR-FRET Rates, % inhibition rate of each compound was calculated based on the Equation 2. The IC50 values, i.e., the concentration of a test compound that inhibits 50% of PI3Kδ activity in vitro, are generated by Softmax program (Molecular Devices, USA). TR-FRET Rate=(Signal at 665 nm emission wavelength/Signal at 620 nm emission wavelength)×10000 <Equation 1> % Inhibition Rate=[(TR-FRET Rate of the test group−TR-FRET Rate of the positive control group)/(TR-FRET Rate of the negative control group−TR-FRET Rate of the positive control group)]×100 <Equation 2>
A general note: In TR-FRET formats the signal depends on donor and acceptor labels being close together.

For the next experiment, the target named is T2, PI3Kγ (p120γ)(h) (Homo sapiens, UniProt P48736).
T2 construct: purchased Upstate (Millipore Co) #14-558
In words: PI3K-HTRF in vitro enzyme assay, PI3Kγ. As to conditions: enzyme 0.4 μg/ml. On the procedure: as §1, §2, §3, §4
(§5) The compounds of the present invention were assayed for the activities of PI3K subtypes, i.e., PI3Kα, PI3Kβ and PI3Kγ, using the same procedures as in Experimental Example 1. […]

The target in a further experiment is T3, PI3Kα (p110α/p85α)(h) (Homo sapiens, UniProt P42336).
T3 construct: purchased Upstate (Millipore Co) #14-602
The experiment is described as follows: PI3K-HTRF in vitro enzyme assay, PI3Kα. To be noted: enzyme 0.1 μg/ml. Here is the method:
as §1, §2, §3, §4, §5

The next experiment has as its target T4, PI3Kβ (p110β/p85α)(h) (Homo sapiens, UniProt P42338).
T4 construct: purchased Upstate (Millipore Co) #14-603
The experiment is described as follows: PI3K-HTRF in vitro enzyme assay, PI3Kβ. As to conditions: enzyme 0.4 μg/ml. Here is the method: as §1, §2, §3, §4, §5

T4 sequence (P42338 whole entry): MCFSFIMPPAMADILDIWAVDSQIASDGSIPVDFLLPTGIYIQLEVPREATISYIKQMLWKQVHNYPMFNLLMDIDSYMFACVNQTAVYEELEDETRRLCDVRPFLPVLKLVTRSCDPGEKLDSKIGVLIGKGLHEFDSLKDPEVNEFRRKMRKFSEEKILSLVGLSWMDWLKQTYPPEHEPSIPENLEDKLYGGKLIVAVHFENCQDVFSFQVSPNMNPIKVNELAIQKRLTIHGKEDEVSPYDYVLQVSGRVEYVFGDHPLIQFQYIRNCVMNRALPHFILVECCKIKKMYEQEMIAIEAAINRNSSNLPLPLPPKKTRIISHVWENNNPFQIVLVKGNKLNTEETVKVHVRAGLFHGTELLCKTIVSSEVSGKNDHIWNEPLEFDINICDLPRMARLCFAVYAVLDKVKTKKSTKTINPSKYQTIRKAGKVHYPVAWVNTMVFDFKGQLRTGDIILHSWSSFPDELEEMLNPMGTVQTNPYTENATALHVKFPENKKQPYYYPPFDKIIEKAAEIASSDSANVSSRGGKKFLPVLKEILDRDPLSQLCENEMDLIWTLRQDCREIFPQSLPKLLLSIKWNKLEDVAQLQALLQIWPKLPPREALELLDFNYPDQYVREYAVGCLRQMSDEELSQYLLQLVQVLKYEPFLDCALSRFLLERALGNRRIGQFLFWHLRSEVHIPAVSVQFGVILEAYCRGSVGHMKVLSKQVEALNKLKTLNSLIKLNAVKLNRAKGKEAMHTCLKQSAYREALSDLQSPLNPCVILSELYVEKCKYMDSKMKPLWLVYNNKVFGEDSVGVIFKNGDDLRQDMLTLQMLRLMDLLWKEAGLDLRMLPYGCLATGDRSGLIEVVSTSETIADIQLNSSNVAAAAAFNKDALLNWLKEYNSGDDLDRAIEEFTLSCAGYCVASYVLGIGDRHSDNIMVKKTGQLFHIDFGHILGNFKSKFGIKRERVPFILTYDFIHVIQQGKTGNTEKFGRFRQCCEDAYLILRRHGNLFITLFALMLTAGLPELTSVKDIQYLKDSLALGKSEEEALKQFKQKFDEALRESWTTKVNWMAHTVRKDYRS
T4 sequence (P27986 whole entry partner): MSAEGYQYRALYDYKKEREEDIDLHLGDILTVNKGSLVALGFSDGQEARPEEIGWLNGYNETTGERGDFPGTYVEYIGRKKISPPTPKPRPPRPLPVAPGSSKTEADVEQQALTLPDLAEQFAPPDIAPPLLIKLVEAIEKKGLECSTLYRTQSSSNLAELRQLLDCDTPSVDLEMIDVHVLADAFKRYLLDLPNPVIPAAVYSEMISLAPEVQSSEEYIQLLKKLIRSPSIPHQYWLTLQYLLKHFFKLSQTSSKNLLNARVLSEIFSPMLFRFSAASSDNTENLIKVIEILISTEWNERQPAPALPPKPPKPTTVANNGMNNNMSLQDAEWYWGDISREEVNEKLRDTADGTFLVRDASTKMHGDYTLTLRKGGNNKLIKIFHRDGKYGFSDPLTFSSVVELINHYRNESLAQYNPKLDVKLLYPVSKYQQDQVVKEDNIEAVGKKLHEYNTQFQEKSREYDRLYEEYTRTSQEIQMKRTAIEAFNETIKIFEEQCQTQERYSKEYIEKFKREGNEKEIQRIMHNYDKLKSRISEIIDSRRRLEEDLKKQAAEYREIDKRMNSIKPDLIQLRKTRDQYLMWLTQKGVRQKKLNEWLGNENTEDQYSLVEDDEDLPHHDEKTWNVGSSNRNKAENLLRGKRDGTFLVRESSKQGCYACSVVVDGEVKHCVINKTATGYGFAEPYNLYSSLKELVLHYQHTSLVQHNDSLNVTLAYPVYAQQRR
T1 sequence (O00329 whole entry): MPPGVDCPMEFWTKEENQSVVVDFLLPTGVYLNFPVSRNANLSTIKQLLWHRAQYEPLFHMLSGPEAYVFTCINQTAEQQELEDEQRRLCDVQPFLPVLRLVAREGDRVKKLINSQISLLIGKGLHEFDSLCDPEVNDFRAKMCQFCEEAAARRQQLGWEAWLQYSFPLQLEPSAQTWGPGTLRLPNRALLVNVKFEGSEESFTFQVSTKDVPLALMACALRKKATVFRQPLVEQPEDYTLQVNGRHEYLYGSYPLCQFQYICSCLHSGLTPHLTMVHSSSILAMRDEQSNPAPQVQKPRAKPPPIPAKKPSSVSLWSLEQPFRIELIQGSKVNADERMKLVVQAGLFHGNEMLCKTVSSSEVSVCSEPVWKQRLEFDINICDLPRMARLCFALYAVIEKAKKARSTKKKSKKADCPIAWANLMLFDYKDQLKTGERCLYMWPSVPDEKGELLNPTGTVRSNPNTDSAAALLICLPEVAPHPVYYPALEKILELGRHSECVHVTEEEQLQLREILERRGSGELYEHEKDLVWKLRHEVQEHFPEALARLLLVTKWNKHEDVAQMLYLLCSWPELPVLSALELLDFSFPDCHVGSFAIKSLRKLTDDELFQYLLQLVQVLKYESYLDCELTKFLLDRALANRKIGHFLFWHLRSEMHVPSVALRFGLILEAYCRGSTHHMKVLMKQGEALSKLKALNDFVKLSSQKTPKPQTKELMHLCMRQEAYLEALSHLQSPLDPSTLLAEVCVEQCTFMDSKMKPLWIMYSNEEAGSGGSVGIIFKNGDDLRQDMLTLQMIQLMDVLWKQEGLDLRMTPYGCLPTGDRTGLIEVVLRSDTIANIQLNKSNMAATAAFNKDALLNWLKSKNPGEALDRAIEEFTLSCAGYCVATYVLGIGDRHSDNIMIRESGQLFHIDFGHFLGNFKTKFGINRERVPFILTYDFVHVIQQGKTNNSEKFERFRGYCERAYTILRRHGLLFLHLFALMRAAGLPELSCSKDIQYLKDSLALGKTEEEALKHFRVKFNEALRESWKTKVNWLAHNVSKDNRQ
T1 sequence (P27986 whole entry partner): as the sequence (P27986 whole entry partner) above
T2 sequence (P48736 whole entry): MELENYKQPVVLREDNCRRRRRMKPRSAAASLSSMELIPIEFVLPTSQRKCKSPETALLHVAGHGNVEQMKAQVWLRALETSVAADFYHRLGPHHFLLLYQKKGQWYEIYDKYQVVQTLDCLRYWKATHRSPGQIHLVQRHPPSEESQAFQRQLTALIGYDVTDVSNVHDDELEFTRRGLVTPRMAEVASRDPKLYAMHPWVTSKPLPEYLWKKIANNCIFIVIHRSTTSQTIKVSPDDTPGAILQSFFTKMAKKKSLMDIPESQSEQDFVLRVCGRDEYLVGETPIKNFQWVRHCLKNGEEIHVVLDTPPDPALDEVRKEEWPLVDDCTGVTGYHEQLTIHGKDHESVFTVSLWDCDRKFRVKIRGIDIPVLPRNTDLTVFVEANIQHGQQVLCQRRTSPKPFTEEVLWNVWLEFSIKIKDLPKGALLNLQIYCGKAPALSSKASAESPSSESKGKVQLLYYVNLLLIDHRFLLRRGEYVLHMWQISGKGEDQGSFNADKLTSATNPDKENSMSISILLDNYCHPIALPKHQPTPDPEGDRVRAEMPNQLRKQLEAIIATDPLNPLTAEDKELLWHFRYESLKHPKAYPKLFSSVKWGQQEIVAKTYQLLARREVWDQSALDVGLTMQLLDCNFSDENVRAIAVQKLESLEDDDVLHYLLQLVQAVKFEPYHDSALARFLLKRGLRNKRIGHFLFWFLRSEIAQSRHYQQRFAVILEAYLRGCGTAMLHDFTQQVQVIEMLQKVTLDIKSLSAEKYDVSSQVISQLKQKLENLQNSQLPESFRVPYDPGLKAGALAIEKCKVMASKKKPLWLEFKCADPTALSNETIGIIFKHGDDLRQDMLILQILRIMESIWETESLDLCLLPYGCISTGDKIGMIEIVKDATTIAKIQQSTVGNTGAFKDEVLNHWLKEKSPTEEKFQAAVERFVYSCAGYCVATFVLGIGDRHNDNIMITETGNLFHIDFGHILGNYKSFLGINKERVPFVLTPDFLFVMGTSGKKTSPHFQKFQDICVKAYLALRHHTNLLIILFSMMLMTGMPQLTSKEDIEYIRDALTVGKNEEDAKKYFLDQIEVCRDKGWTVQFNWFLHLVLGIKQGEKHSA
T3 sequence (P42336 whole entry): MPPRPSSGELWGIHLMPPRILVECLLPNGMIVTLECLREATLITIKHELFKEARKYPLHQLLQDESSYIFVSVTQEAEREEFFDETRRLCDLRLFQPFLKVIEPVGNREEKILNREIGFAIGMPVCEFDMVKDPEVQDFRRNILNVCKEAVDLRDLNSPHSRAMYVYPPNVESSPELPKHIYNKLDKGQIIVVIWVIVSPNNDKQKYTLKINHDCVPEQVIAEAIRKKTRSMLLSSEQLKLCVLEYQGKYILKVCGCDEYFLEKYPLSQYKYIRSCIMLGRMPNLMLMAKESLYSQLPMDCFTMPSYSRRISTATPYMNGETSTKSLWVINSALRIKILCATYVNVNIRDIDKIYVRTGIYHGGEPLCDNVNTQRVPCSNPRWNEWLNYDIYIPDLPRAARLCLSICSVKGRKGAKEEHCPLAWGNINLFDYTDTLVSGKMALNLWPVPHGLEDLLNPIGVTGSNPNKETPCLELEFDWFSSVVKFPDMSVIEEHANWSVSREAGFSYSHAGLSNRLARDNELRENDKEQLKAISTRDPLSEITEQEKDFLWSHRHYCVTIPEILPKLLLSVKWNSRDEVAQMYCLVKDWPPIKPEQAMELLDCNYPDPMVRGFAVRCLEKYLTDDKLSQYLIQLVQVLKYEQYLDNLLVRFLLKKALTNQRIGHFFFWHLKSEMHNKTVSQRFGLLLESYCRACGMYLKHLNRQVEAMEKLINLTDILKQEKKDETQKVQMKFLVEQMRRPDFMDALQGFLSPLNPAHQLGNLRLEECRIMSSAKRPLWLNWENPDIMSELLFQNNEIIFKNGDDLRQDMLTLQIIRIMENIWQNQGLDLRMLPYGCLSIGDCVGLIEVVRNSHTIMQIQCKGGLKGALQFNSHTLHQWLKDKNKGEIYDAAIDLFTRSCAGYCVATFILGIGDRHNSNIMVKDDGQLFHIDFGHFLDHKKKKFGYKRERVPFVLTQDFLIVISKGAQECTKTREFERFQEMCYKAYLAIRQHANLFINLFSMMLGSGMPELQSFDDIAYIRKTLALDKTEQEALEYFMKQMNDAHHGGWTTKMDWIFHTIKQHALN
T3 sequence (P27986 whole entry partner): as the sequence (P27986 whole entry partner) above

`C[C@H](Nc1ncnc2ccc(C#N)cc12)c1nc2cccc(-c3cnc(N)nc3)c2c(=O)n1-c1ccccc1` [Example 2, (S)-4-((1-(5-(2-aminopyrimidin-5-yl)-4-oxo-3-phenyl-3,4-dihydroquinazolin-2-yl)ethyl)amino)quinazoline-6-carbonitrile]: the concentration for half-maximal inhibition (IC50) (in general, the concentration that gives 50% inhibition) at PI3Kδ (p110δ/p85α)(h) worked out at 0.004 µM; against PI3Kγ (p120γ)(h) it was 0.117 µM; at PI3Kα (p110α/p85α)(h) it was 0.598 µM; against PI3Kβ (p110β/p85α)(h), 6.71 µM.
For `CCC[C@H](Nc1ncnc2ccc(C#N)cc12)c1nc2cccc(-c3cnc(OC)nc3)c2c(=O)n1-c1ccccc1` [Example 10, (S)-4-((1-(5-(2-methoxypyrimidin-5-yl)-4-oxo-3-phenyl-3,4-dihydroquinazolin-2-yl)butyl)amino)quinazoline-6-carbonitrile], in that order: 0.017 µM, 0.465 µM, 3.42 µM and 7.5 µM.
With `CCC[C@H](Nc1ncnc2ccc(C#N)cc12)c1nc2cccc(-c3cnc(OCC)nc3)c2c(=O)n1-c1ccccc1` [Example 11, (S)-4-((1-(5-(2-ethoxypyrimidin-5-yl)-4-oxo-3-phenyl-3,4-dihydroquinazolin-2-yl)butyl)amino)quinazoline-6-carbonitrile], the concentration for half-maximal inhibition (IC50) against PI3Kδ (p110δ/p85α)(h) was found to be 0.016 µM; on PI3Kγ (p120γ)(h) it was 0.432 µM; at PI3Kα (p110α/p85α)(h), 4.74 µM; against PI3Kβ (p110β/p85α)(h), 8.95 µM.
On the same counts, the results for `CCC[C@H](Nc1ncnc2ccc(C#N)cc12)c1nc2cccc(-c3cnc(N)nc3)c2c(=O)n1-c1ccccc1` [Example 12, (S)-4-((1-(5-(2-aminopyrimidin-5-yl)-4-oxo-3-phenyl-3,4-dihydroquinazolin-2-yl)butyl)amino)quinazoline-6-carbonitrile] are 0.006 µM, 0.108 µM, 0.621 µM and 3.06 µM.
As for `C[C@H](Nc1ncnc2ccc(C#N)cc12)c1nc2cccc(-c3cncnc3)c2c(=O)n1C1CC1` [Example 17, (S)-4-((1-(3-cyclopropyl-4-oxo-5-(pyrimidin-5-yl)-3,4-dihydroquinazolin-2-yl)ethyl)amino)quinazoline-6-carbonitrile], the 50% inhibitory concentration (IC50) turned out to be 0.01 µM on PI3Kδ (p110δ/p85α)(h), 0.947 µM at PI3Kγ (p120γ)(h), 2.64 µM at PI3Kα (p110α/p85α)(h) and 3.82 µM against PI3Kβ (p110β/p85α)(h).
For `COc1ncc(-c2cccc3nc([C@H](C)Nc4ncnc5ccc(C#N)cc45)n(C4CC4)c(=O)c23)cn1` [Example 18, (S)-4-((1-(3-cyclopropyl-5-(2-methoxypyrimidin-5-yl)-4-oxo-3,4-dihydroquinazolin-2-yl)ethyl)amino)quinazoline-6-carbonitrile], in that order: 0.019 µM, 0.771 µM, 2.71 µM and 5.79 µM.
On the same counts, the results for `CCOc1ncc(-c2cccc3nc([C@H](C)Nc4ncnc5ccc(C#N)cc45)n(C4CC4)c(=O)c23)cn1` [Example 19, (S)-4-((1-(3-cyclopropyl-5-(2-ethoxypyrimidin-5-yl)-4-oxo-3,4-dihydroquinazolin-2-yl)ethyl)amino)quinazoline-6-carbonitrile] are 0.021 µM, 0.593 µM, 2.02 µM and 6.73 µM.
With `CC[C@H](Nc1ncnc2cccc(F)c12)c1nc2cccc(-c3cnc(F)nc3)c2c(=O)n1-c1ccccc1` [Example 26, (S)-5-(2-fluoropyrimidin-5-yl)-2-(1-((5-fluoroquinazolin-4-yl)amino)propyl)-3-phenylquinazolin-4(3H)-one], the IC50 at PI3Kδ (p110δ/p85α)(h) was found to be 0.017 µM; at PI3Kγ (p120γ)(h) it was 3.42 µM; against PI3Kα (p110α/p85α)(h), 4.47 µM.
On the same counts, the results for `CC[C@H](Nc1ncnc2cccc(F)c12)c1nc2cccc(-c3cnc(C)nc3)c2c(=O)n1-c1ccccc1` [Example 27, (S)-2-(1-((5-fluoroquinazolin-4-yl)amino)propyl)-5-(2-methylpyrimidin-5-yl)-3-phenylquinazolin-4(3H)-one] are 0.027 µM, 4.98 µM and 7.26 µM.
For `CC(C)[C@H](Nc1ncnc2cccc(F)c12)c1nc2cccc(-c3cnc(N)nc3)c2c(=O)n1-c1ccccc1` [Example 29, (S)-5-(2-aminopyrimidin-5-yl)-2-(1-((5-fluoroquinazolin-4-yl)amino)-2-methylpropyl)-3-phenylquinazolin-4(3H)-one], in that order: 0.013 µM, 7.61 µM and 2.01 µM.
On to `O=c1c2c(-c3cncnc3)cccc2nc([C@@H](Nc2ncnc3cccc(F)c23)C2CC2)n1-c1ccccc1` [Example 30, (S)-2-(cyclopropyl((5-fluoroquinazolin-4-yl)amino)methyl)-3-phenyl-5-(pyrimidin-5-yl)quinazolin-4(3H)-one], for which the IC50 came to 0.019 µM on PI3Kδ (p110δ/p85α)(h), 2.64 µM on PI3Kγ (p120γ)(h) and 5.3 µM at PI3Kα (p110α/p85α)(h).
As for `Cc1ncc(-c2cccc3cc([C@H](C)Nc4ncnc5ccc(C#N)cc45)n(-c4ccccc4)c(=O)c23)cn1` [Example 36, (S)-4-((1-(8-(2-methylpyrimidin-5-yl)-1-oxo-2-phenyl-1,2-dihydroisoquinolin-3-yl)ethyl)amino)quinazoline-6-carbonitrile], the IC50 on PI3Kδ (p110δ/p85α)(h) was determined as 0.005 µM; against PI3Kγ (p120γ)(h), 0.086 µM; on PI3Kα (p110α/p85α)(h), 0.73 µM.
For `CC[C@H](Nc1ncnc2ccc(C#N)cc12)c1cc2cccc(-c3cncnc3)c2c(=O)n1-c1ccccc1` [Example 39, (S)-4-((1-(1-oxo-2-phenyl-8-(pyrimidin-5-yl)-1,2-dihydroisoquinolin-3-yl)propyl)amino)quinazoline-6-carbonitrile], in that order: 0.001 µM, 0.195 µM and 0.712 µM.
On the same counts, the results for `CC[C@H](Nc1ncnc2ccc(C#N)cc12)c1cc2cccc(-c3cnc(OC)nc3)c2c(=O)n1-c1ccccc1` [Example 40, (S)-4-((1-(8-(2-methoxypyrimidin-5-yl)-1-oxo-2-phenyl-1,2-dihydroisoquinolin-3-yl)propyl)amino)quinazoline-6-carbonitrile] are 0.002 µM, 0.237 µM and 0.908 µM.
On the same counts, the results for `CC[C@H](Nc1ncnc2ccc(C#N)cc12)c1cc2cccc(-c3cnc(C)nc3)c2c(=O)n1-c1ccccc1` [Example 42, (S)-4-((1-(8-(2-methylpyrimidin-5-yl)-1-oxo-2-phenyl-1,2-dihydroisoquinolin-3-yl)propyl)amino)quinazoline-6-carbonitrile] are 0.001 µM, 0.654 µM and 1.63 µM.
For the compound `C[C@H](Nc1ncnc2cccc(F)c12)c1cc2cccc(-c3cnc(F)nc3)c2c(=O)n1-c1ccccc1` [Example 44, (S)-8-(2-fluoropyrimidin-5-yl)-3-(1-((5-fluoroquinazolin-4-yl)amino)ethyl)-2-phenylisoquinolin-1(2H)-one], the IC50 was 0.018 µM at PI3Kδ (p110δ/p85α)(h), 2.01 µM on PI3Kγ (p120γ)(h) and 5.63 µM against PI3Kα (p110α/p85α)(h).

(Values after patent publication US10941136B2, “Quinazoline derivative or its salt and pharmaceutical composition comprising the same” (YUHAN CORPORATION, priority 2016, dated 2021).)
